# Results taken from US10689335B2, “Hydrogen sulfide precursors and conjugates thereof” (Georgia State University Research Foundation, Inc., priority 2015, dated 2020).
# Key:
# PLE [1] = experiment: H2S concentration measurement by electrode probe ISO-H2S-2 in phosphate buffer with esterase; format: biochemical, pig; conditions: 200 μM precursor in PBS at 37° C. with 1 unit/mL PLE
# Procedure: HPs (compounds HP-101, HP-102, HP-103, HP-104; final concentration=200 μM) were added to an incubation chamber (World Precision Instruments; WPI) containing phosphate buffer (10 mM; pH 7.4, 10 mL), and esterase (1 unit/mL) at 37° C. H2S formation was detected with the use of a 2-mm H2S-selective microelectrode (ISO-H2S-2; WPI) attached to an Apollo 1100 Free Radical Analyser (WPI) and shown as picoamps current generated. A standard curve (using Na2S.9H2O) was generated by following literature procedures, but using PBS containing esterase at 37° C. (FIG. 4).
# H2S release from these precursors was studied (FIG. 4). […] For 200 μM of the precursor compound in PBS at 37° C. with 1 unit/mL PLE, the peak H2S concentration for the fastest one, HP-101, was about 95 μM at 15 min; and for the slowest one, HP-104, it was about 13 μM at 43 min.
# [2] = system: esterases produced by the cells; experiment: H2S release from HP-101 in cell culture media (ISO-H2S-2 electrode); conditions: 200 μM, 37° C.
# Procedure: The in vitro release of H2S from HP-101 was studied under various conditions such as HP-101 (200 μM) in DMEM media (5 mL), cell+DMEM media without FBS, and cell+DMEM media with FBS.
# HP-101 (200 μM) was added to an incubation chamber (World Precision Instruments; WPI) containing cell culture media (10 mL) at 37° C. H2S formation was detected with the use of an ISO-H2S-2 probe attached to an Apollo 1100 Free Radical Analyser and shown as picoamps current generated. A standard curve (using Na2S.9H2O) was also generated under the same conditions.
# PLE [3] = experiment: Esterase-triggered release of H2S and parent drug from hybrid precursor (methylene blue method, HPLC); format: biochemical, pig; conditions: 200 μM in phosphate buffer pH 7.4, PLE 20 unit/mL, 37° C.
# Procedure: To a 9.9 mL phosphate buffer (pH 7.4) solution was added 11.1 mg (200 unit) PLE, followed by the addition of 100 μL 20 mM HP-105 stock solution (final concentration: 200 μM). The resultant solution was sealed and stirred at 37° C. At every 30 min, 200 μL of reaction solution was taken into a 1.5 mL vial containing 200 μL zinc acetate (1%, w/v). Then the vial was centrifuged for 10 min. (14.5×1000 rp). The supernatant was removed and the precipitate was washed with PBS solution (100 μL×2). 600 μL of N,N-dimethyl-1,4-phenylenediaminesulfate (0.2% w/v in 20% H2SO4 solution) and 50 μL ferric chloride (10% w/v in 0.2% H2SO4 solution) was added to the vial. Then the vial was centrifuged for 5 min (14.5×1000 rp). The absorbance (at 740 nm) of the resulting solution was measured (after stirring for 10 min). H2S concentration was calculated based on a calibration curve of NaHS. (FIG. 7A).
# [4] = system: TNF-α secretion in RAW 264.7 cells; experiment: Anti-inflammation study: TNF-α in LPS-stimulated RAW 264.7 cell culture supernatant (ELISA); format: cell-based; conditions: 1 hour co-treatment with 1 unit/mL esterase and 1 μg/mL LPS
# Procedure: RAW 264.7 cells were seeded in the 48-well plate one day before the experiment. Lipopolysaccharide was added into the cell culture to initiate the inflammatory response in RAW 264.7 cells and to trigger the expression of cytokines. RAW 264.7 cells were co-treated with HPs (HP-101, HP-102, HP-103, HP-104) or iHPs, 1 unit/mL esterase and 1 μg/mL of LPS for 1 hour. Thereafter, the cell culture supernatant was collected. The concentrations of TNF-α in the cell culture supernatant was quantified by a commercial ELISA kit (ELISA Ready-SET-Go!®-eBioscience).
# esterase = experiment: Esterase triggered lactone formation monitored by LC-MS/MS; format: biochemical
# Procedure: The release of hydrogen sulfide and its release rate were detected using LC-MS. A 200 μM HP 10 reaction mixture was treated with esterase for 25 min which led to formation of more than 180 μM of the lactone product as shown in FIG. 2.
# HP-101 (final concentration: 200 μM) was added to PBS (10 mL) with 1 unit/mL esterase at 37° C. Reaction mixture (10 μL) was taken out every 3 minutes and added into a vial containing 990 μL methanol at −78° C. for 5 minutes. The mixture (14.5×1000 rp) was centrifuged, and the supernatant was used as the sample for LC-MS/MS analysis (Agilent 1100 LC, 6410 TripleQ MS/MS, Ion transition: 205.0/135.0, positive mode).
# porcine liver esterase = experiment: Esterase-induced H2S release detected with fluorescent probe WSP-5; format: biochemical; conditions: 200 μM, porcine liver esterase 4 u/mL in PBS at 37° C.
# Procedure: The ability of esterases to release hydrogen sulfide, as shown in Scheme 17, was examined using a well-known hydrogen sulfide fluorescent probe WSP-5 (3-oxo-3H-spiro[isobenzofuran-1,9′-xanthene]-3′,6′-diyl bis(2-(pyridin-2-yldisulfanyl)benzoate) to detect its production in the hydrogen sulfide precursor (HP) reaction mixture. A 200 μM solution of HP 10 was treated with porcine liver esterase (Aldrich, E2884), 4 u/mL) in PBS at 37° C., then 5 μL reaction mixture was taken into 995 μL acetonitrile and detected using WSP-5. The results are shown in FIG. 1 which indicate that HP 10 releases H2S in phosphate buffer saline with 4 units of esterase.
# Because of the high volatility of H2S, when the escape rate is greater than formation rate, the concentration decreases. The peak concentration of H2S also appeared within about 25 min.
# HP-101 (final concentration: 200 μM) or other control compounds were added to PBS (10 mL) buffer containing esterase (1 unit/mL) at 37° C. After 15 minutes, aliquots of 100 μL samples were taken out and added into 100 μL PBS containing 50 μM WSP-5 and 100 μM CTAB in 96-well plate. After mixing and standing for 5 min at room temperature, the fluorescent intensities at 535 nm were recorded by a plate reader with excitation at 485 nm. (FIG. 1). […]
structure (smiles),measurement,setting,value
"CC(=O)Oc1cc(C)cc(C)c1C(C)(C)CC(=O)[S-].[Na+] [HP-101, Sodium 3-(2-acetoxy-4,6-dimethylphenyl)-3-methylbutanethioate]",peak H2S concentration,PLE [1],about 95 μM
same,time of peak H2S concentration,PLE [1],15 min
same,H2S release in media collected after overnight of cell culture,[2],released at a moderate rate
same,H2S release in DMEM alone,[2]; DMEM media without cells,did not release H2S
"COc1ccc2cc([C@H](C)C(=O)Oc3cc(C)cc(C)c3C(C)(C)CC([O-])=S)ccc2c1.[Na+] [HP-105, Sodium (S)-3-(2-((2-(6-methoxynaphthalen-2-yl)propanoyl)oxy)-4,6-dimethylphenyl)-3-methylbutanethioate]",generation of naproxen and H2S by treatment with an esterase,PLE [3],could generate naproxen and H2S
[Na+].[Na+].[S-2] [Na2S],effect on TNF-α secretion,[4],pro-inflammatory effect
"CC(=O)Oc1cc(C)cc(C)c1C(C)(C)CC(=O)S [HP 10, 3-(2-acetoxy-4,6-dimethylphenyl)-3-methylbutanethioic S-acid]",lactone product formed,esterase; 200 μM reaction mixture treated with esterase for 25 min,more than 180 μM
same,H2S released,"esterase; 200 μM, esterase, 25 min, inferred from lactone formed",more than 90%
same,H2S release detected using WSP-5,porcine liver esterase,releases H2S
C1COCCN1.COc1ccc(P(=S)(S)N2CCOCC2)cc1 (stereo not shown) [GYY 4137],effect on TNF-α secretion,[4],effectively inhibited TNF-α secretion
